Experimental data as given in patent US10807958B2, “1,4-bis(3-aminopropyl)piperazine derivative and its use” (INSERM (Institut National de la Sante et de la Recherche …, priority 2015, dated 2020).

Key:
Thy-Tau22 mice = assay: Immunohistochemical measurement of tau pathology (NFT burden) in hippocampal CA1; assay type: in vivo, mouse; settings: Thy-Tau22, 0.5 mg/kg vs untreated, FIG. 5
Excerpt: Wild-type C57BL/6J animals of 3 months were purchased at Charles Rivers Laboratories (France) and were allow to acclimate in the animal facility for at least one week before any treatment. Thy-Tau22 transgenic colonies (C57BL/6J genetic background) were obtained by crossing heterozygous Thy-Tau22 males with C57BL/6 WT females. […] In this model, a progressive development of NFT is observed in the hippocampus and amygdala, which parallels behavioral impairments (Schindowski et al., 2006). Furthermorever, in the hippocampus, hyper- and abnormally phosphorylated Tau species accumulate within the somato-dendritic area (Schindowski et al., 2006). For animal treatment, animals were randomly distributed and the compound of Formula I was given in the drinking water at final concentration of 0.5 or 1 mg/kg. Drinking bottles were changed once per week, volume consumption was measured along the treatment period. Food consumption and body weight were assessed. […] Quantification of labeled neurons was achieved using the NIH-Image J software and expressed in arbitrary units (A.U). The burden of NFT in the hippocampal CA1 was investigated by immunohistochemistry and quantification. […]

[1] = system: Tau proteins of Thy-Tau22 animals (hippocampus); assay: 1D SDS-PAGE and Western-blot of Tau expression, catabolites and phosphorylation in hippocampus; assay type: in vivo, mouse; settings: treated vs untreated, FIG. 6
Excerpt: Wild-type C57BL/6J animals of 3 months were purchased at Charles Rivers Laboratories (France) and were allow to acclimate in the animal facility for at least one week before any treatment. Thy-Tau22 transgenic colonies (C57BL/6J genetic background) were obtained by crossing heterozygous Thy-Tau22 males with C57BL/6 WT females. […] In this model, a progressive development of NFT is observed in the hippocampus and amygdala, which parallels behavioral impairments (Schindowski et al., 2006). Furthermorever, in the hippocampus, hyper- and abnormally phosphorylated Tau species accumulate within the somato-dendritic area (Schindowski et al., 2006).
For animal treatment, animals were randomly distributed and the compound of Formula I was given in the drinking water at final concentration of 0.5 or 1 mg/kg. Drinking bottles were changed once per week, volume consumption was measured along the treatment period. Food consumption and body weight were assessed. In wild-type animals the pilot study of drug treatment was performed for one month to establish the innocuousness of the treatment with the compound of Formula I. This was based on the physiological, social and behavioural assessments. Thy-Tau22 males were treated for 4 months starting at 3 month old. All protocols were approved by the local ethics committee (n^∘342012, CEEA).
After behavioral assessment, blood was collected in 1.5 mL polypropylene tubes (Eppendorf, France), mice were sacrificed by cervical dislocation to avoid any modifications instrumental to anesthesia (Lefreche et al. 2012). Hippocampi and cortices were dissected and snap frozen in 1.5 mL tubes (Eppendorf). Tissue was homogenized in Tris-HCl buffer (10 mM pH 7.4) containing 320 mM sucrose, protease inhibitors (Complete mini EDTA-free, Roche) sonicated and spun at 12,000×g for 10 min at 4° C. The supernatant was recovered, protein concentration was achieved using the BCA Protein quantification assay kit (Pierce) according to the manufacturer instruction. The supernatant was further processed for biochemical analyses or kept at −80° C. For 1D or 2D gels, the same lysis buffer was used. Thus, equal amount protein in Tris buffer were added with a solution containing 7M urea, 2M thiourée with 2% SDS and sonicated at 60 Hz 30 pulses.
For the western-blot analysis of Tau proteins, SDS-PAGE was performed according to the manufacturer's instructions using Bis-Tris 4-12% gradient acrylamide gel (NuPage® Bis-Tris PreCast 12 wells, Life Technologies). The apparent molecular weights were calibrated using the molecular weight markers (Novex and Magic Marks, Life Technologies). Electrophoresis was performed under a continuous tension of 100V/per gel for 1 h. Proteins were reversibly stained with Ponceau Red to check the quality of the efficacy of protein transfer. For western-blotting, the membranes were blocked in 25 mM Tris-HCl pH 8.0, 150 mM NaCl, 0.1% Tween-20 (v/v) (TBS-T) and 5% (w/v) of skimmed milk (TBS-M) for 30 min and they were incubated overnight at 4° C. the primary antibody. The nitrocellulose membrane is rinsed three times by gentle shaking in TBS-T during 10 min each. […]
Brain proteins (of hippocampus) from untreated and Compound I⋅HCl treated thy-tau22 animals were resolved by 1D SDS-PAGE and Tau proteins were labeled with Pan-Tau antibodies (N-ter, C-ter). Catabolites detected with these antibodies are indicated as f-Nter and f-Cter. […]

[2] = ratio phospho-epitope/total hTau

CC(C)CN(CCCN1CCN(CCCNc2c3c(nc4ccccc24)CCCC3)CC1)CC(C)C.Cl [Compound I⋅HCl, N-[3-(4-{3-[Bis(2-methylpropyl)amino]propyl}piperazin-1-yl)propyl]-1,2,3,4-tetrahydroacridin-9-amine hydrochloride]
AT8 immunostaining (Thy-Tau22 mice): no significant differences
average surface of staining after AT100 staining (Thy-Tau22 mice): significantly reduced
Tau C-terminal catabolites products at 43 kDa [1]: significantly increased
Tau N-terminal catabolites [1]: significantly decreased
Tau phosphorylation at other phospho-sites (pSer199, pSer262, pSer422, Tau-1) [1]: not significantly modified
Tau phosphorylation at phospho-site 396 [1, 2]: significant reduction
Tau phosphorylation at phospho-site 404 [1, 2]: significant reduction
